What was measured:
Type in all cases: in vivo
[1] = test system: barnyardgrass (Echinochloa crus-galli); experiment: Test B preemergence
Summary of the method: (§1)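 Ratings on a 0 to 100 visual scale (100 complete control) compare treated plants with controls 13 to 15 days after application. Treatments were pre- or postemergence sprays of compound in non-phytotoxic solvent with surfactant.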

[2] = test system: velvetleaf (Abutilon theophrasti); experiment: Test B preemergence
Summary of the method: as §1

[3] = test system: lambsquarters (Chenopodium album); experiment: Test C preemergence; settings: for Plant response rating (0 to 100), Lambsquarters: Rate 500 g/ha, visual evaluation after 12 to 14 days
Summary of the method: (§2)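 Herbicidal effect is a visual 0–100 score (100 = complete control) assigned versus untreated plants, 12 to 14 days after spraying in the greenhouse. Test compounds were applied in a non-phytotoxic, surfactant-containing solvent.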

[4] = test system: johnsongrass (Sorghum halepense); experiment: Test C preemergence; settings: for Plant response rating (0 to 100), Johnsongrass: Rate 500 g/ha, visual evaluation after 12 to 14 days
Summary of the method: as §2

[5] = test system: morningglory (Ipomoea hederacea); experiment: Test C preemergence; settings: for Plant response rating (0 to 100), Morningglory: Rate 500 g/ha, visual evaluation after 12 to 14 days
Summary of the method: as §2

[6] = test system: common ragweed (Ambrosia elatior); experiment: Test C preemergence; settings: for Plant response rating (0 to 100), Ragweed, Common: Rate 500 g/ha, visual evaluation after 12 to 14 days
Summary of the method: as §2

[7] = test system: woolly cupgrass (Eriochloa villosa); experiment: Test C preemergence; settings: for Plant response rating (0 to 100), Cupgrass, Woolly: Rate 500 g/ha, visual evaluation after 12 to 14 days
Summary of the method: as §2

Nightshade = experiment: Test C preemergence
corn (Zea mays) = experiment: Test C preemergence; settings: for Plant response rating (0 to 100), Corn: Rate 500 g/ha, visual evaluation after 12 to 14 days
Summary of the method: as §2

[8] = test system: giant foxtail (Setaria faberii); experiment: Test C preemergence; settings: for Plant response rating (0 to 100), Foxtail, Giant: Rate 500 g/ha, visual evaluation after 12 to 14 days
Summary of the method: as §2

[9] = test system: Surinam grass (Brachiaria decumbens); experiment: Test C preemergence; settings: for Plant response rating (0 to 100), Surinam grass: Rate 500 g/ha, visual evaluation after 12 to 14 days
Summary of the method: as §2

[10] = test system: yellow nutsedge (Cyperus esculentus); experiment: Test C preemergence; settings: for Plant response rating (0 to 100), Nutsedge: Rate 500 g/ha, visual evaluation after 12 to 14 days
Summary of the method: as §2

[11] = test system: pigweed (Amaranthus retroflexus); experiment: Test C preemergence; settings: for Plant response rating (0 to 100), Pigweed: Rate 500 g/ha, visual evaluation after 12 to 14 days
Summary of the method: as §2

Sunflower = experiment: Test C preemergence; settings: Rate 62 g/ha, scale 0 to 100
[12] = test system: barnyardgrass (Echinochloa crus-galli); experiment: Test C flooded paddy test; settings: for Barnyardgrass plant response rating: Flooded Paddy, Rate 500 g/ha, scale 0 to 100, 0 no effect, 100 complete control; for Plant response rating, Barnyardgrass / Plant response rating (scale 0 to 100), Barnyardgrass: flooded paddy test; for Plant response rating, Barnyardgrass: scale 0 to 100 (0 no effect, 100 complete control); for Plant response rating (scale 0 to 100), Barnyardgrass: Rate 62 g/ha, visually evaluated after 12 to 14 days, 0 = no effect, 100 = complete control
Summary of the method: (§3)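 Visually assessed vs untreated controls 12–14 d post-treatment (greenhouse). Flooded paddy plants were at the 2-leaf stage; scale 0 = no effect, 100 = complete control.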

[13] = test system: duck salad (Heteranthera limosa); experiment: Test C flooded paddy test; settings: for Ducksalad plant response rating: Flooded Paddy, Rate 500 g/ha, scale 0 to 100, 0 no effect, 100 complete control; for Plant response rating, Ducksalad / Plant response rating (scale 0 to 100), Ducksalad: flooded paddy test; for Plant response rating, Ducksalad: scale 0 to 100 (0 no effect, 100 complete control); for Plant response rating (scale 0 to 100), Ducksalad: Rate 62 g/ha, visually evaluated after 12 to 14 days, 0 = no effect, 100 = complete control
Summary of the method: as §3

[14] = test system: smallflower flatsedge (Cyperus difformis); experiment: Test C flooded paddy test; settings: for Flatsedge plant response rating: Flooded Paddy, Rate 500 g/ha, scale 0 to 100, 0 no effect, 100 complete control; for Plant response rating, Flatsedge / Plant response rating (scale 0 to 100), Flatsedge: flooded paddy test; for Plant response rating, Flatsedge: scale 0 to 100 (0 no effect, 100 complete control); for Plant response rating (scale 0 to 100), Flatsedge: Rate 62 g/ha, visually evaluated after 12 to 14 days, 0 = no effect, 100 = complete control
Summary of the method: as §3

rice (Oryza saliva) = experiment: Test C flooded paddy test; settings: for Rice plant response rating: Flooded Paddy, Rate 500 g/ha, scale 0 to 100, 0 no effect, 100 complete control; for Plant response rating, Rice / Plant response rating (scale 0 to 100), Rice: flooded paddy test; for Plant response rating, Rice: scale 0 to 100 (0 no effect, 100 complete control); for Plant response rating (scale 0 to 100), Rice: Rate 62 g/ha, visually evaluated after 12 to 14 days, 0 = no effect, 100 = complete control
Summary of the method: as §3

[15] = Preemergence, Rate 500 g/ha, scale 0 to 100, 0 no effect, 100 complete control
[16] = preemergence, Rate 125 g/ha, scale of 0 to 100 where 0 is no effect and 100 is complete control, 13 to 15 days
[17] = Rate 125 g/ha, scale 0 to 100, 0 no effect, 100 complete control
[18] = preemergence, Rate 62 g/ha, scale 0 to 100
[19] = preemergence, Rate 250 g/ha, scale 0 to 100, 0 no effect, 100 complete control
[20] = Rate 250 g/ha, scale 0 to 100, 0 no effect, 100 complete control

## CCC(C)c1ccn(C2OCN(c3cccc(OC(F)F)c3)C2=O)n1 (stereo not drawn) [Compound 134]
[1]; [15]
  Plant response rating, Barnyardgrass: 100
[1]; [16]
  Plant response rating, Barnyardgrass: 100
[2]; [15]
  Plant response rating, Velvetleaf: 0
[2]; [16]
  Plant response rating, Velvetleaf: 0
[3]; [17]
  Plant response rating, Lambsquarters: 100
[3]; [18]
  Plant response rating, Lambsquarters: 100
[3]; preemergence
  Plant response rating (0 to 100), Lambsquarters: 100
[3]; [19]
  Plant response rating, Lambsquarters: 100
[4]; [17]
  Plant response rating, Johnsongrass: 100
[4]; [18]
  Plant response rating, Johnsongrass: 100
[4]; preemergence
  Plant response rating (0 to 100), Johnsongrass: 100
[4]; [19]
  Plant response rating, Johnsongrass: 100
[5]; [17]
  Plant response rating, Morningglory: 0
[5]; [18]
  Plant response rating, Morningglory: 0
[5]; preemergence
  Plant response rating (0 to 100), Morningglory: 0
[5]; [19]
  Plant response rating, Morningglory: 0
[6]; [17]
  Plant response rating, Ragweed, Common: 0
[6]; [18]
  Plant response rating, Ragweed, Common: 0
[6]; preemergence
  Plant response rating (0 to 100), Ragweed, Common: 40
[6]; [19]
  Plant response rating, Ragweed, Common: 0
[7]; [17]
  Plant response rating, Cupgrass, Woolly: 100
[7]; [18]
  Plant response rating, Cupgrass, Woolly: 100
[7]; preemergence
  Plant response rating (0 to 100), Cupgrass, Woolly: 100
[7]; [19]
  Plant response rating, Cupgrass, Woolly: 100
Nightshade; Rate 62 g/ha, scale 0 to 100
  Plant response rating, Nightshade: 0
Nightshade; [17]
  Plant response rating, Nightshade: 10
Nightshade; [20]
  Plant response rating, Nightshade: 30
Corn (Zea mays); [17]
  Plant response rating, Corn: 20
Corn (Zea mays); preemergence
  Plant response rating (0 to 100), Corn: 100
Corn (Zea mays); [19]
  Plant response rating, Corn: 100
[8]; [17]
  Plant response rating, Foxtail, Giant: 100
[8]; [18]
  Plant response rating, Foxtail, Giant: 90
[8]; preemergence
  Plant response rating (0 to 100), Foxtail, Giant: 100
[8]; [19]
  Plant response rating, Foxtail, Giant: 100
[9]; [17]
  Plant response rating, Surinam grass: 100
[9]; [18]
  Plant response rating, Surinam grass: 100
[9]; preemergence
  Plant response rating (0 to 100), Surinam grass: 100
[9]; [19]
  Plant response rating, Surinam grass: 100
[10]; [17]
  Plant response rating, Nutsedge: 70
[10]; [18]
  Plant response rating, Nutsedge: 60
[10]; preemergence
  Plant response rating (0 to 100), Nutsedge: 100
[10]; [19]
  Plant response rating, Nutsedge: 90
[11]; [17]
  Plant response rating, Pigweed: 100
[11]; [18]
  Plant response rating, Pigweed: 100
[11]; preemergence
  Plant response rating (0 to 100), Pigweed: 100
[11]; [19]
  Plant response rating, Pigweed: 100
Sunflower
  Plant response rating, Sunflower: 0
[12]
  Barnyardgrass plant response rating: 100
  Plant response rating (scale 0 to 100), Barnyardgrass: 100
[12]; Rate 125 g/ha
  Plant response rating, Barnyardgrass: 100
[12]; Rate 250 g/ha
  Plant response rating, Barnyardgrass: 100
[13]
  Ducksalad plant response rating: 100
  Plant response rating (scale 0 to 100), Ducksalad: 60
[13]; Rate 125 g/ha
  Plant response rating, Ducksalad: 90
[13]; Rate 250 g/ha
  Plant response rating, Ducksalad: 100
[14]
  Flatsedge plant response rating: 100
  Plant response rating (scale 0 to 100), Flatsedge: 90
[14]; Rate 125 g/ha
  Plant response rating, Flatsedge: 100
[14]; Rate 250 g/ha
  Plant response rating, Flatsedge: 100
Rice (Oryza saliva)
  Rice plant response rating: 90
  Plant response rating (scale 0 to 100), Rice: 0
Rice (Oryza saliva); Rate 125 g/ha
  Plant response rating, Rice: 60
Rice (Oryza saliva); Rate 250 g/ha
  Plant response rating, Rice: 90

## CCCC(C)c1ccn(C2OCN(c3cccc(OC(F)F)c3)C2=O)n1 (stereo not drawn) [Compound 132]
[1]; [15]
  Plant response rating, Barnyardgrass: 100
[1]; [16]
  Plant response rating, Barnyardgrass: 100
[2]; [15]
  Plant response rating, Velvetleaf: 30
[2]; [16]
  Plant response rating, Velvetleaf: 0
[3]; [17]
  Plant response rating, Lambsquarters: 100
[3]; [18]
  Plant response rating, Lambsquarters: 100
[3]; preemergence
  Plant response rating (0 to 100), Lambsquarters: 100
[3]; [19]
  Plant response rating, Lambsquarters: 100
[4]; [17]
  Plant response rating, Johnsongrass: 80
[4]; [18]
  Plant response rating, Johnsongrass: 50
[4]; preemergence
  Plant response rating (0 to 100), Johnsongrass: 100
[4]; [19]
  Plant response rating, Johnsongrass: 100
[5]; [18]
  Plant response rating, Morningglory: 0
[5]; preemergence
  Plant response rating (0 to 100), Morningglory: 0
[5]; [19]
  Plant response rating, Morningglory: 0
[6]; [17]
  Plant response rating, Ragweed, Common: 0
[6]; [18]
  Plant response rating, Ragweed, Common: 0
[6]; preemergence
  Plant response rating (0 to 100), Ragweed, Common: 0
[6]; [19]
  Plant response rating, Ragweed, Common: 0
[7]; [17]
  Plant response rating, Cupgrass, Woolly: 100
[7]; [18]
  Plant response rating, Cupgrass, Woolly: 90
[7]; preemergence
  Plant response rating (0 to 100), Cupgrass, Woolly: 100
[7]; [19]
  Plant response rating, Cupgrass, Woolly: 100
Nightshade; Rate 62 g/ha, scale 0 to 100
  Plant response rating, Nightshade: 0
Nightshade; [17]
  Plant response rating, Nightshade: 0
Nightshade; [20]
  Plant response rating, Nightshade: 20
Corn (Zea mays); [17]
  Plant response rating, Corn: 10
Corn (Zea mays); [18]
  Plant response rating, Corn: 0
Corn (Zea mays); preemergence
  Plant response rating (0 to 100), Corn: 90
Corn (Zea mays); [19]
  Plant response rating, Corn: 70
[8]; [17]
  Plant response rating, Foxtail, Giant: 70
[8]; [18]
  Plant response rating, Foxtail, Giant: 70
[8]; preemergence
  Plant response rating (0 to 100), Foxtail, Giant: 100
[8]; [19]
  Plant response rating, Foxtail, Giant: 100
[9]; [17]
  Plant response rating, Surinam grass: 100
[9]; [18]
  Plant response rating, Surinam grass: 90
[9]; preemergence
  Plant response rating (0 to 100), Surinam grass: 100
[9]; [19]
  Plant response rating, Surinam grass: 100
[10]; [17]
  Plant response rating, Nutsedge: 0
[10]; [18]
  Plant response rating, Nutsedge: 0
[10]; preemergence
  Plant response rating (0 to 100), Nutsedge: 90
[10]; [19]
  Plant response rating, Nutsedge: 0
[11]; [17]
  Plant response rating, Pigweed: 30
[11]; [18]
  Plant response rating, Pigweed: 0
[11]; preemergence
  Plant response rating (0 to 100), Pigweed: 100
[11]; [19]
  Plant response rating, Pigweed: 70
Sunflower
  Plant response rating, Sunflower: 0
[12]
  Barnyardgrass plant response rating: 100
  Plant response rating (scale 0 to 100), Barnyardgrass: 40
[12]; Rate 125 g/ha
  Plant response rating, Barnyardgrass: 70
[12]; Rate 250 g/ha
  Plant response rating, Barnyardgrass: 100
[13]
  Ducksalad plant response rating: 80
  Plant response rating (scale 0 to 100), Ducksalad: 0
[13]; Rate 125 g/ha
  Plant response rating, Ducksalad: 20
[13]; Rate 250 g/ha
  Plant response rating, Ducksalad: 40
[14]
  Flatsedge plant response rating: 90
  Plant response rating (scale 0 to 100), Flatsedge: 90
[14]; Rate 125 g/ha
  Plant response rating, Flatsedge: 90
[14]; Rate 250 g/ha
  Plant response rating, Flatsedge: 90
Rice (Oryza saliva)
  Rice plant response rating: 90
  Plant response rating (scale 0 to 100), Rice: 0
Rice (Oryza saliva); Rate 125 g/ha
  Plant response rating, Rice: 20
Rice (Oryza saliva); Rate 250 g/ha
  Plant response rating, Rice: 20

— patent US7138361B2, “Herbicidal heterocycles” (E. I. du Pont de Nemours and Company, priority 2000, dated 2006)
